In patent publication US5595903A (priority 1989, dated 1997):

Legend:
AChE [1] = biological target: T1, AChE (Homo sapiens, UniProt P22303); type: biochemical
AChE [2] = biological target: T1, AChE; assay: biochemical; type: biochemical
ChE = ChE (Homo sapiens, UniProt P06276); type: biochemical
[3] = human, in vivo; cited from earlier work

T1 sequence (P22303 32-614): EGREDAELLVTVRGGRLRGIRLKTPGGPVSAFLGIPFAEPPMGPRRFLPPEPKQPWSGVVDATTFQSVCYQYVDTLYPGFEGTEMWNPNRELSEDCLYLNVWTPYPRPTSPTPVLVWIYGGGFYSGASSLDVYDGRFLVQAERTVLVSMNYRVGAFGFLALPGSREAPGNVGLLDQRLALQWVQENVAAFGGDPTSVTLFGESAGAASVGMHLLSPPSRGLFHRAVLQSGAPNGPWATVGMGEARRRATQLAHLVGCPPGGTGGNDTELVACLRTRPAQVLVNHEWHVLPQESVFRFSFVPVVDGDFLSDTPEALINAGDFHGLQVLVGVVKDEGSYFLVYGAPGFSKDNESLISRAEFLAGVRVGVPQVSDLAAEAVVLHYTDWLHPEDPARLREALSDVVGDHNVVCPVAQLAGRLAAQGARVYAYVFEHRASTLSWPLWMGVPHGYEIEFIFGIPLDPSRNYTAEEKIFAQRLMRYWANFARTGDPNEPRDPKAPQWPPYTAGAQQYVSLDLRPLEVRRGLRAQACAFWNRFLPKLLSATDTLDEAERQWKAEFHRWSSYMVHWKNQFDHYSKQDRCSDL

| Molecule | sensitivity of tumor mRNA-induced AChE activity to selective inhibitor (AChE [1]) | AcThCho degraded (AChE [2]) | remaining activity at 10 µM (AChE [2]) | sensitivity of oocyte-produced enzyme to inhibition (in words) (AChE [2]) | sensitivity of tumor mRNA-induced ChE activity to selective inhibitor (ChE) | effect on symptoms of OP-intoxicated patients [3] |
| --- | --- | --- | --- | --- | --- | --- |
| C=CC[N+](C)(C)c1ccc(CCC(=O)CCc2ccc([N+](C)(C)CC=C)cc2)cc1 [BW284C51, 1,5-bis-(4-allyldimethylammoniumphenyl)-pentan-3-one dibromide] | sensitive | 3 ± 1 pmol/hr per ng mRNA | 1 ± 0.3% |  |  |  |
| CC(C)NP(=O)(NC(C)C)OP(=O)(NC(C)C)NC(C)C [iso-OMPA, tetraisopropylpyrophosphoramide] |  | 280 ± 10 pmol/hr per ng mRNA | 98 ± 3% | totally insensitive | sensitive |  |
| BuChE from human serum: Purified BuChE from human serum (protein, UniProt P06276 29-602, looked up) Cholinesterase: EDDIIIATKNGKVRGMNLTVFGGTVTAFLGIPYAQPPLGRLRFKKPQSLTKWSDIWNATKYANSCCQNIDQSFPGFHGSEMWNPNTDLSEDCLYLNVWIPAPKPKNATVLIWIYGGGFQTGTSSLHVYDGKFLARVERVIVVSMNYRVGALGFLALPGNPEAPGNMGLFDQQLALQWVQKNIAAFGGNPKSVTLFGESAGAASVSLHLLSPGSHSLFTRAILQSGSFNAPWAVTSLYEARNRTLNLAKLTGCSRENETEIIKCLRNKDPQEILLNEAFVVPYGTPLSVNFGPTVDGDFLTDMPDILLELGQFKKTQILVGVNKDEGTAFLVYGAPGFSKDNNSIITRKEFQEGLKIFFPGVSEFGKESILFHYTDWVDDQRPENYREALGDVVGDYNFICPALEFTKKFSEWGNNAFFYYFEHRSSKLPWPEWMGVMHGYEIEFVFGLPLERRDNYTKAEEILSRSIVKRWANFAKYGNPNETQNNSTSWPVFKSTEQKYLTLNTESTRIMTKLRAQQCRFWTSFFPKVLEMTGNIDEAEWEWKAGFHRWNNYMMDWKNQFNDYTSKKESCVGL |  |  |  |  |  | improve the symptoms |
